We go through nine substances from patent publication US20220039395A1, “INSECT CONTROL AGENTS” (priority 2018, published 2022).

“Also recorded” adds a separate entry of the source. Numbered stars: 1 amine (or outer) side, 2 acyl side, 3 side chain; on linkers, the order of the positions; unused ones are H or OH. Square brackets hold non-standard residues; d marks the D form. Ends that are not written are not given here. Suc = O=C(CCC(=O)[*:2])[*:1]; β3hL = CC(C)C[C@H](N)CC(=O)O; 2Abf = not defined here

One assay deals with Aphids. In words: Feeding with peptides in artificial diet, mortality without other stress. The assay is classed as in vivo, Myzus persicae. Conditions: for effect on mortality in the absence of additional stressors: no additional stress conditions. As to the method: A standard artificial diet for M. persicae was produced as described in Van Emden (2009) and provided the basal diet to which neuropeptide analogues were added for screening purposes. Neuropeptide analogues were diluted individually in the artificial diet to a pre-determined recommended concentration as follows: 1895 (3.5×10^−5 M) and 2019 (2.0×10^−5 M).
Feeding apparatus were constructed using a set-up developed by Sadeghi et al (2009). For this, a piece of Parafilm was stretched over a Plexiglas ring (h=4 cm, Ø=3 cm) and 100 μl of the artificial diet containing the desired neuropeptide analogue was pipette onto the Parafilm membrane. A second piece of Parafilm, stretched to 4 times the original thickness, was stretched over the original layer, sandwiching the artificial diet between two layers of Parafilm. A strip of Parafilm was wrapped around the circumference of the Plexiglas ring, sealing in the diet. A plastic ring (h=1.2 cm, Ø=3.4 cm) was subsequently placed over the Parafilm layer, creating a walled chamber in which to house test aphids in contact with the Parafilm layer containing the artificial diet. Finally, a small Petri dish (h=1 cm, Ø=3.6 cm), modified for ventilation with net cloth, was placed on top of each feeding apparatus to prevent aphid escape.
To obtain aphids for use in experiments, reproducing anholocyclic adults were placed on individual excised leaves of Chinese cabbage at densities of 5 adults per leaf and allowed to reproduce for 24 h. The stem of each excised leaf was held within a 0.5 mL Eppendorf tube containing water via a punctured hole in the Eppendorf lid, and placed individually within a microcage (L=4 cm, Ø=9.5 cm). Following 24 h, adults were removed and resultant first instar nymphs (<1 day old and synchronised in age to within 24 h) retained. Nymphs were allowed to develop on the Chinese cabbage for 5 days. On day 5, (3rd instar) nymphs were transferred onto the artificial diet containing a neuropeptide analogue at densities of 1 per feeding chamber and monitored daily until death. Aphids were transferred to fresh artificial diet (containing neuropeptide analogue) every 5 days. Life history traits recorded include age at first reproduction, number of nymphs produced per 24 h period, and lifespan. From these parameters, lifetime fecundity and daily fecundity were calculated. Control groups were set up involving aphids reared on the host plant, an artificial diet without a neuropeptide analogue, and an artificial diet containing the native CAPA neuropeptide.
Aphids were reared on artificial diet, alone or supplemented with peptide 2129, 2315, 2316 or 2320. A control group (no test peptide) was reared on a host plant. No other stress conditions were applied.
For peptides 2315, 2316 and 2320, mortality was assessed at 48, 72, 96, 120 and 144 hours. A group of 9 or 10 insects was used for each time point, and all experiments were performed at least 4 times.

Assay [1] has as its system Myzus persicae. In words: Feeding of aphids with peptides in artificial diet; life span and fecundity. Conditions: M. persicae on artificial diet containing the peptide; mean ± SE. Format: in vivo. How it is done: A standard artificial diet for M. persicae was produced as described in Van Emden (2009) and provided the basal diet to which neuropeptide analogues were added for screening purposes. Neuropeptide analogues were diluted individually in the artificial diet to a pre-determined recommended concentration as follows: 1895 (3.5×10^-5 M) and 2019 (2.0×10^-5 M). Feeding apparatus were constructed using a set-up developed by […] et al (2009). For this, a piece of Parafilm was stretched over a Plexiglas ring (h=4 cm, Ø=3 cm) and 100 μl of the artificial diet containing the desired neuropeptide analogue was pipette onto the Parafilm membrane. A second piece of Parafilm, stretched to 4 times the original thickness, was stretched over the original layer, sandwiching the artificial diet between two layers of Parafilm. A strip of Parafilm was wrapped around the circumference of the Plexiglas ring, sealing in the diet. A plastic ring (h=1.2 cm, Ø=3.4 cm) was subsequently placed over the Parafilm layer, creating a walled chamber in which to house test aphids in contact with the Parafilm layer containing the artificial diet. Finally, a small Petri dish (h=1 cm, Ø=3.6 cm), modified for ventilation with net cloth, was placed on top of each feeding apparatus to prevent aphid escape. To obtain aphids for use in experiments, reproducing anholocyclic adults were placed on individual excised leaves of Chinese cabbage at densities of 5 adults per leaf and allowed to reproduce for 24 h. The stem of each excised leaf was held within a 0.5 mL Eppendorf tube containing water via a punctured hole in the Eppendorf lid, and placed individually within a microcage (L=4 cm, Ø=9.5 cm). Following 24 h, adults were removed and resultant first instar nymphs (<1 day old and synchronised in age to within 24 h) retained. Nymphs were allowed to develop on the Chinese cabbage for 5 days. On day 5, (3rd instar) nymphs were transferred onto the artificial diet containing a neuropeptide analogue at densities of 1 per feeding chamber and monitored daily until death. Aphids were transferred to fresh artificial diet (containing neuropeptide analogue) every 5 days. Life history traits recorded include age at first reproduction, number of nymphs produced per 24 h period, and lifespan. From these parameters, lifetime fecundity and daily fecundity were calculated. Control groups were set up involving aphids reared on the host plant, an artificial diet without a neuropeptide analogue, and an artificial diet containing the native CAPA neuropeptide.

The subject of another assay is Macrosiphum rosae. The assay can be described thus: Desiccation/starvation tolerance assay after peptide microinjection. The assay is classed as in vivo. Conditions: Macrosiphum rosae, microinjection; for Documented effect on desiccation/starvation mortality: final concentration ×10^−5 M, relative to vehicle control; for LTime50 (h), test / Median IQR survival (h), test: ×10^−5 M, desiccation and starvation stress, test group. As to the method: (§1) Neuropeptides were administered to test aphids via microinjection to allow for rapid mass screening of neuropeptide analogue efficacy. For this, native neuropeptides were diluted in double distilled water (DDH2O) to a concentration of 1×10^−5 M. Neuropeptide analogues were diluted in DDH2O to the following concentrations: kinin analogues 1728 (2.5×10^−5 M), 2139 (3.5×10^−5 M), 2139-Ac (3.5×10^−5 M); CAP2b analogues 1895 (3.5×10^−5 M), 1896 (3.5×10^−5 M), 1902 (3.5×10^−5 M), 2089 (3.9×10^−5 M), 2123 (1.0×10^−5 M), 2125 (1.0×10^−5 M), 2129 (2.0×10^−5 M). Once at the desired concentration, neuropeptide solutions were administered to test aphids at an injection volume of 9 nl based on total haemolymph volume, to produce an approximate 1:20 dilution of injection volume to haemolymph. Injections were performed using a pulled glass needle and a Nanoject II Auto-Nanoliter Injector (Drummond Scientific Company, Broomall, Pa.). A vehicle control was set up for each treatment/day of experiments to account for variation in needle pulling. For this, control aphids were injected with 9 nl of DDH2O and subsequently exposed to the same experiments as aphids receiving the neuropeptide treatment. Neuropeptide treated and vehicle control aphids were subsequently used in the stress bioassays detailed below.
(§2) Anholocyclic adults of mixed age of either M. persicae or M. rosae were selected from the stock cultures and treated with a native neuropeptide or neuropeptide analogue via microinjection using the method detailed above. Treated and vehicle control aphids were allowed to recover on excised leaves of the host plant for 1 h before being placed in an empty ventilated microcage (L=4 cm, 0=9.5 cm) at densities of 10 per cage. In total, 30-40 aphids were treated for each neuropeptide treatment group and a further 30-40 for the associated vehicle control group. From the point of placement in the microcage (taken as 0 h), aphid survival was checked every hour during daylight hours and approximately every 4 h during night-time hours until the final aphid died. Survival data were subsequently analysed using a Log-rank (Mantel-Cox) text in GraphPad Prism version 7.0. LTime50 (the time taken to kill 50% of the test population) values were calculated via Probit Analysis in Minitab 17 (Minitab Inc., State College, Pa.).

Assay [2] concerns Myzus persicae. The description is as above. Format: in vivo. To be noted: Myzus persicae, microinjection; for Documented effect on desiccation/starvation mortality: final concentration ×10^−5 M, relative to vehicle control; for LTime50 (h), test / Median ± IQR survival (h), test: ×10^−5 M, desiccation and starvation stress, test group. How it is done:
as §1, §2

For “ASGL[βhL]AFPRV-NH2 (ASGL[β3hL]AFPRV-NH2; N-terminus assumed; SMILES CC(C)C[C@@H](CC(=O)N[C@@H](C)C(=O)N[C@@H](Cc1ccccc1)C(=O)N1CCC[C@H]1C(=O)N[C@@H](CCCNC(=N)N)C(=O)N[C@H](C(N)=O)C(C)C)NC(=O)[C@H](CC(C)C)NC(=O)CNC(=O)[C@H](CO)NC(=O)[C@H](C)N) [compound 2316]”, the “Dead (48 h)” value in the assay on Aphids (artificial diet supplemented with peptide, 48 h) is given as 86.0%. Besides, in the assay on Aphids (artificial diet supplemented with peptide, 72 h), the “Dead (72 h)” value came out at 88.0%. Also, in the assay on Aphids (artificial diet supplemented with peptide, 96 h), the “Dead (96 h)” value is reported as 90.0%. The “Dead (120 h)” value in the assay on Aphids (artificial diet supplemented with peptide, 120 h) turned out to be 92.0%. Besides, the “Dead (144 h)” value with Aphids (artificial diet supplemented with peptide, 144 h) worked out at 92.0%. The figures for the “effect on mortality in the absence of additional stressors” value in the assay on Aphids and in the assay with Aphids (listed as 2136) were “increase mortality in the absence of additional stressors” and “increase mortality in the absence of additional stress conditions”, respectively.

Turning to “GANMGLYAFPRVamide (GANMGLYAFPRV-NH2) [Native Capa, reference compound]”, in the assay with Myzus persicae [1], the “Age at 1st reproduction” value worked out at 11.2 ± 0.2 days, the Ave. daily fecundity turned out to be 1.6 ± 0.1 nymphs, the “Days as reproducing adult” value is on record as 7.6 ± 0.6 and the “Life span” value stood at 21.3 ± 0.7 days. The same substance registered a Lifetime fecundity in the assay with Myzus persicae [1] of 12.0 ± 1.2 nymphs.

As to “FF[Aib]WG-NH2 [compound 2139, reference compound]”, in the assay with Macrosiphum rosae, the “Documented effect on desiccation/starvation mortality” value is “non-significant survival curves; also recorded: No effect”; the “LTime50 (h), test” value was 31.7 | 29.8 h; the “Median IQR survival (h), test” value is 29.5 ± 22.0 | 27.0 ± 26.0 h. In the assay with Myzus persicae [2], the “Documented effect on desiccation/starvation mortality” value was “non-significant survival curves; also recorded: No effect”; the “LTime50 (h), test” value is on record as 18.3 | 22.4 h; the “Median ± IQR survival (h), test” value is recorded as 22.0 ± 16.5 | 25.0 ± 21.0 h.

“2Abf-Suc-FTPRV-NH2 ({2Abf-Suc}-FTPRV-NH2; reading uncertain; also: printed as 2Abf-Suc-FTPRV-NH2) [compound 2089]”: in the assay with Macrosiphum rosae, the “Documented effect on desiccation/starvation mortality” value is recorded as “No effect”; the “LTime50 (h), test” value is 23.2 | 16.4 h; the “Median IQR survival (h), test” value was 23.0 ± 17.0 | 17.0 ± 21.3 h. In the assay on Myzus persicae [2], the “Documented effect on desiccation/starvation mortality” value was “No effect”; the “LTime50 (h), test” value is 10.9 | 13.0 h; the “Median ± IQR survival (h), test” value is recorded as 11.0 ± 12.0 | 16.5 ± 10.3 h.

Consider “2Abf-Suc-FTPRI-NH2 ({2Abf-Suc}-FTPRI-NH2; reading uncertain; also: printed as 2Abf-Suc-FTPRI-NH2) [compound 1896]”, for which, in the assay on Macrosiphum rosae, the “Documented effect on desiccation/starvation mortality” value is recorded as “No effect”; the “LTime50 (h), test” value is 28.9 | 24.7 h; the “Median IQR survival (h), test” value is recorded as 27.0 ± 17.3 | 23.0 ± 18.5 h. In the assay with Myzus persicae [2], the “Documented effect on desiccation/starvation mortality” value is “No effect”; the “LTime50 (h), test” value is recorded as 22.2 | 24.8 h; the “Median ± IQR survival (h), test” value is listed as 24.0 ± 0 9.0 | 25.0 ± 10.5 h.

In the case of “Native Kinin: native kinin neuropeptide based on the kinin structure of Drosophila melanogaster, synthesized by Cambridge Peptides (NSVVLGKKQRFHSWG; ends and bridges not checked) [reference compound]”, in the assay on Myzus persicae [1], the “Age at 1st reproduction” value stood at 11.1 ± 0.5 days, the Ave. daily fecundity came to 1.6 ± 0.2 nymphs, the “Days as reproducing adult” value was 5.9 ± 1.0 and the “Life span” value came to 18.8 ± 1.3 days. The substance also had a Lifetime fecundity with Myzus persicae [1] of 9.7 ± 1.9 nymphs.

Regarding “2Abf-Suc-FKPRL-NH2 ({2Abf-Suc}-FKPRL-NH2; reading uncertain; also: printed as 2Abf-Suc-FKPRL-NH2) [compound 1902]”, in the assay with Macrosiphum rosae, the “Documented effect on desiccation/starvation mortality” value was “No effect”; the “LTime50 (h), test” value was 28.9 | 26.4 h; the “Median IQR survival (h), test” value is reported as 27.0 ± 17.3 | 25.0 ± 10.0 h. In the assay on Myzus persicae [2], the “Documented effect on desiccation/starvation mortality” value is “No effect”; the “LTime50 (h), test” value is on record as 22.2 | 21.8 h; the “Median ± IQR survival (h), test” value is on record as 24.0 ± 0 9.0 | 23.5 ± 7.0 h.

Consider 2Abf-Suc-FT[Hyp]RV-NH2 [compound 2123], for which, in the assay with Macrosiphum rosae, the “Documented effect on desiccation/starvation mortality” value is listed as “No effect”; the “LTime50 (h), test” value is on record as 21.6 | 19.1 h; the “Median IQR survival (h), test” value is 24.0 ± 11.0 | 16.0 ± 18.0 h. In the assay on Myzus persicae [2], the “Documented effect on desiccation/starvation mortality” value is given as “No effect”; the “LTime50 (h), test” value was 24.3 | 21.1 h; the “Median ± IQR survival (h), test” value is reported as 25.0 ± 13.5 | 21.0 ± 13.5 h.

For “[Aib]FF[Aib]WG-NH2 [compound 1728, reference compound]”, in the assay on Macrosiphum rosae, the “Documented effect on desiccation/starvation mortality” value is listed as “No effect”; the “LTime50 (h), test” value was 31.7 | 31.6 h; the “Median IQR survival (h), test” value is 29.5 ± 22.0 | 24.0 ± 28.5 h. Also, in the assay on Myzus persicae [2], the “Documented effect on desiccation/starvation mortality” value is “No effect”; the “LTime50 (h), test” value is 18.3 | 25.0 h; the “Median ± IQR survival (h), test” value is 22.0 ± 16.5 | 26.0 ± 23.5 h.
